Measurements: patent US8242087B2, “Phosphate modified nucleosides useful as substrates for polymerases and as antiviral agents” (priority 2007, dated 2012)

Assays:
HIV RT = target: T1, HIV RT (Human immunodeficiency virus type 1 group M subtype B, UniProt P03366); experiment: Steady state kinetics of single nucleotide incorporation by HIV RT (P1/T1); type: biochemical, HIV-1
T1 construct: HIV RT polymerase was purchased from GE Healthcare; purchased GE Healthcare (Amersham Bioscience)
Method: The steady steate kinetics of a single nucleotide incorporation of an amino acid phosphoramidate (AA-dAMP) and of a natural nucleoside triphosphate (dATP) was determined by the gel-based polymerase assay. In all the experiments, the template T1 and the primer P1 were used (Table 1). The primer and template in 1:2 molar ratio were hybridized in a buffer containing 20 mM TRIS.HCl, 10 mM KCl, 2 mM MgSO4, 0.1% Triton X-100, pH 8.8 and used in an amount to provide 125 nM concentration of the primer in each 12 μL reaction. The range of concentrations for amino acid phosphoramidates was optimized according to a Km value for the incorporation of an individual nucleotide. In the case of HIV RT (Amersham Bioscience (GE Healthcare), 30 U/μL), reaction mixtures containing the enzyme in concentration to attain 5-20% conversion and appropriate substrate concentration (nucleoside phosphoramidate or natural dNTP) were incubated at 37° C. and run for 8-10 different time intervals. Kinetic analysis of single nucleotide incorporation by Therminator DNA polymerase (NEB, 2 U/μL) was performed similarly except the incubations and polymerase reactions, which were carried out at 70° C. To prevent solvent condensation/evaporation, the reaction mixtures were topped with mineral oil. The reactions were quenched by addition of the buffer containing 80% formamide, 2 mM EDTA, 1×TBE buffer. The analysis of polymerase reactions was performed by polyacrylamide gel electrophoresis (20% (19:1 mono:bis), 7M urea, 30 cm×40 cm×0.4 mm). The relative band intensities were measured using OptiQuant software. The rates of incorporation (V) were calculated based on the percentage of the extension production (n+1 band). The kinetic parameters (Vmax and Km) were determined by plotting V (pmol/min·U) versus substrate concentration and fitting the data point to a rectangular hyperbola using GraphPad Prism software.

[1] = target: T2, HIV reverse transcriptase (Human immunodeficiency virus type 1 group M subtype B, UniProt P03366); experiment: Gel-based single-nucleotide-incorporation and control assays with HIV RT (Example 4); type: biochemical, HIV-1
T2 construct: performed for the enzyme HIV reverse transcriptase (GE Healthcare, 30 U/4 stock solution); purchased GE Healthcare
Method: End-labeled primers were annealed to their template by combining primer and templates in a molar ratio of 1:2 and heating the mixture to 70° C. for 10 minutes, followed by slow cooling to room temperature over a period of 2.5 hours. For the incorporation of L-Asp-dGMP (9), L-Asp-dTMP (10), L-Asp-dCMP (11), and N-Me-Asp-dAMP (12) (see FIG. 13), the primer P1 was annealed to templates T1, T2, T4 or A and P2 was annealed to T4. A series of 20 μL reactions was performed for the enzyme HIV reverse transcriptase (GE Healthcare, 30 U/4 stock solution). The final mixture contained 125 nM primer-template complex, RT buffer (250 mM TrisHCl, 250 mM KCl, 50 mM MgCl2, 2.5 mM spermidine, 50 mM DTT, pH 8.3), 0.03 U/μL HIV RT and different amino acid phosphoramidates building blocks concentrations. In the control reaction with the natural nucleotide, 10 μM or 50 μM dGTP, dTTP, dATP or dCTP were used. The mixture was incubated at 37° C. […] and aliquots were quenched after 5, 10, 20, 30, 60 and 120 minutes respectively.
All polymerase reactions (3 μL) were quenched by the addition of 10 μL of loading buffer (90% formamide, 0.05% bromophenol blue, 0.05% xylene cyanol and 50 mM EDTA). Samples were heated at 70° C. for 5 minutes prior to analysis by electrophoresis for 2-3 hours at 2000 V on a 0.4 mm 20% denaturing gel in the presence of a 100 mM Tris-borate, 2.5 mM EDTA buffer, pH 8.3. Products were visualized by phosphor imaging. The amount of radioactivity in the bands corresponding to the products of enzymatic reactions was determined by using the Optiquant image analysis software (Perkin Elmer).

Substance: 2′-deoxy-adenosine-5′-aspartyl-phosphoramidate [Compound 1]
- Km, fold higher as compared to dATP (HIV RT): 400 fold
- Vmax, fold lower than natural substrate dATP (HIV RT): 3 fold
- specificity (Vmax/Km), fold reduced vs natural substrate (HIV RT): 1300 fold
- Km (HIV RT; P1/T1, 37° C.): 185 ± 24.5 µM
- Vmax (HIV RT; P1/T1, 37° C.): 2.63 ± 0.13 pmol/min · U
- base-pairing selectivity of incorporation ([1]; P1/T1): inserted selectively against thymine
- incorporation with blunt ended duplex ([1]; primer P1, template A): none of these compounds incorporated at all
